Test results reported in patent US20230265116A1, “DEGRADATION OF (EGFR) BY CONJUGATION OF EGFR INHIBITORS WITH E3 LIGASE LIGAND AND METHODS OF USE” (BEIGENE, LTD., priority 2020, published 2023).

What was measured:
[1] = target: T1, EGFR L858R/T790M/C797S (BaF3-LTC cells) (Homo sapiens, UniProt P00533, C797S/L858R/T790M); test: EGFR degradation HTRF assay, BaF3-LTC cells; format: cell-based; settings: BaF3-LTC cells; for DC50: EGFR degradation, IC50 (DC50) from curve fit, read-out: DC50(nM) BaF3-LTC; for Dmax: maximum percentage of inhibition (degradation), read-out: Dmax (%) BaF3-LTC
T1 construct: expressed in transfected cells; host or cells: BaF3
T1 sequence (P00533 25-1210 T790M/C797S/L858R): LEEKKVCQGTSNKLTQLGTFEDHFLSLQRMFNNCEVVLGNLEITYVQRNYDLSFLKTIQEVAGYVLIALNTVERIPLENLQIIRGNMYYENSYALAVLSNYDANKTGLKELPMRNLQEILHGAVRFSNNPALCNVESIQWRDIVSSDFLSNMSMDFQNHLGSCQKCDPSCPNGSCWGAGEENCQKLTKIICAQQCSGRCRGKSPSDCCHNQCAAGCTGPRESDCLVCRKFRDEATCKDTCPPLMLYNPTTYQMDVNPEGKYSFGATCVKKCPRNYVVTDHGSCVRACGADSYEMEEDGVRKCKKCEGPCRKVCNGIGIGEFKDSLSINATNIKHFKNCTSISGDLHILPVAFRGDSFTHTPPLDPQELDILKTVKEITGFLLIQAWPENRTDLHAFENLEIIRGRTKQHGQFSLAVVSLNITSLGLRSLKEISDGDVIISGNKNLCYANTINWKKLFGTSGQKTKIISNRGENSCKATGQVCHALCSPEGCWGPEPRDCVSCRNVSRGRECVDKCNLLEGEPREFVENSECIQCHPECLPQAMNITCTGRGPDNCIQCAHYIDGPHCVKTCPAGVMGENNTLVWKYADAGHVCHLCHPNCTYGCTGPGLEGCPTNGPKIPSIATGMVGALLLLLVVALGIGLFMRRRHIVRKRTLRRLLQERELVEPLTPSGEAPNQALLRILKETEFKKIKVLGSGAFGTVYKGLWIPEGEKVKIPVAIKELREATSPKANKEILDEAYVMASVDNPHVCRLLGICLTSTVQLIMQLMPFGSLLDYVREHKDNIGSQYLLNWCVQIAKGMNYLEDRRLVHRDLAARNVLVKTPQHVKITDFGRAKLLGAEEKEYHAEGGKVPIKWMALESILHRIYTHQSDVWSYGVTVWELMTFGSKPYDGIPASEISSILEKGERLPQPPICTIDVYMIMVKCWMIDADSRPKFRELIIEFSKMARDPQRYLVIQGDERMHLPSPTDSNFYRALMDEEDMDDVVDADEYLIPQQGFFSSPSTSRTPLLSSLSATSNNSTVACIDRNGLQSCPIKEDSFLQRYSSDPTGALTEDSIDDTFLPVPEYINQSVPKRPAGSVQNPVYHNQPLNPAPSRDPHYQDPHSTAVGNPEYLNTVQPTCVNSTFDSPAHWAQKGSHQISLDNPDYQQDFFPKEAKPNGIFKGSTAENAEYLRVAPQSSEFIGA
Protocol: (§1) BaF3 WT(wild type), BaF3-LTC(L858R/T790M/C797S) and BaF3-DTC(Del19/T790M/C797S) cells are treated with compounds diluted in 0.2% DMSO cell culture medium and incubate for 16h, 37° C., 5% CO2, H1975-#36, H1975-#28, H1975-#23 and HCC827 cells are treated with compounds diluted in 0.2% DMSO cell culture medium on day 2, incubate for 16h, 37° C., 5% CO2.the final concentriation of compounds in all assay is start with 10 uM, 5-fold dilution, total 8 doses were included.
(§2) After 16h treatment, add HTRF lysis buffer to each well; seal the plate and incubate 1 hour at room temperature on a plate shaker; Once the cells are lysed, 16 μL of cell lysate are transferred to a PE 384-well HTRF detection plate; 4 μL of pre-mixed HTRF antibodies are added to each well; Cover the plate with a plate sealer, spin 1000 rpm for 1 min, Incubate overnight at room temperature; Read on BMG PheraStar with HTRF protocol (337 nm-665 nm-620 nm).
(§3) The inhibition (degradation) percentage of the compound was calculated by the following equation: Inhibition percentage of Compound=100-100×(Signal-low control)/(High control-low control), wherein signal=each test compound group
(§4) High control=Cell group with added DMSO and without compound, indicating microplate readings without EGFR degradation;
(§5) Dmax is the maximum percentage of inhibition (degradation).
(§6) The IC50 (DC50) value of a compound can be obtained by fitting the following equation
(§7) Y=Bottom+(TOP−Bottom)/(1+((IC50/X)^hillslope))
(§8) Wherein, X and Y are known values, and IC50, Hillslope, Top and Bottom are the parameters obtained by fitting with software. Y is the inhibition percentage (calculated from the equation), X is the concentration of the compound; IC50 is the concentration of the compound when the 50% inhibition is reached. The smaller the IC50 value is, the stronger the inhibitory ability of the compound is. Vice versa, the higher the IC50 value is, the weaker the inhibitory ability of the compound is; Hillslope represents the slope of the fitted curve, generally around 1*; Bottom represents the minimum value of the curve obtained by data fitting, which is generally 0%±20%; Top represents the maximum value of the curve obtained by data fitting, which is generally 100%±20%. The experimental data were fitted by calculating and analyzing with Dotmatics data analysis software.

[2] = tested on: EGFR Del19/T790M/C797S (H1975-clone #28); test: EGFR degradation HTRF assay, H1975-clone #28 DTC cells; format: cell-based; settings: H1975 # 28 DTC cells; for DC50: EGFR degradation, IC50 (DC50) from curve fit, read-out: DC50(nM) H1975 # 28 DTC; for Dmax (%) H1975 # 28 DTC: maximum percentage of inhibition (degradation)
Protocol: H1975-clone #28(Del19/T790M/C797S) and H1975-clone #23(Del19/C797S). EGFR-Del19/T790M/C797S and EGFR-Del19/C797S were stably expressed in H1975 cell lines by lentivirus-mediated over-expression, respectively. The EGFR over-expressed cells then underwent gene knockout, in which the EGFR targeting sgRNA was designed to only target the endogenous EGFR copies and preserve the exogenous EGFR copies. Followed by the gene knockout, the edited H1975 cells were seeded in 96 well plates at the concentration of 1 cell/well, cultured for about 2 weeks to allow single clones formation. The formed clones were screened by DNA sequencing and whole exon sequencing analysis for the desired edition. H1975-clone #28 and H1975-clone #23 were finally confirmed as homozygous Del19/T790M/C797S EGFR and Del19/C797S EGFR clones, respectively.
as §1, §2, §3, §4, §5, §6, §7, §8

SMILES	DC50 [1]	Dmax [1]	DC50 [2]	Dmax (%) H1975 # 28 DTC [2]
CCc1cc(Nc2ncc(Br)c(Nc3ccc4c(=O)n(CC)ncc4c3P(C)(C)=O)n2)c(OC)cc1N1CCC(N2CCN(C(=O)[C@@H]3CCN(c4cc(F)c([C@H]5CCC(=O)NC5=O)c(F)c4)C3)CC2)CC1 [Example 673, (R)-3-(4-((R)-3-(4-(1-(4-((5-bromo-4-((5-(dimethylphosphoryl)-2-ethyl-1-oxo-1,2-dihydrophthalazin-6-yl)amino)pyrimidin-2-yl)amino)-2-ethyl-5-methoxyphenyl)piperidin-4-yl)piperazine-1-carbonyl)pyrrolidin-1-yl)-2,6-difluorophenyl)piperidine-2,6-dione]	5.79 nM	93.3%	0.677 nM	85.2%
CCc1ccc2c(P(C)(C)=O)c(Nc3nc(Nc4cc(CC)c(N5CCC(N6CCN(CCc7cc(F)cc8c7oc(=O)n8C7CCC(=O)NC7=O)CC6)CC5)cc4OC)ncc3Br)ccc2n1 (centres unmarked) [Example 443, 3-(7-(2-(4-(1-(4-((5-bromo-4-((5-(dimethylphosphoryl)-2-ethylquinolin-6-yl)amino)pyrimidin-2-yl)amino)-2-ethyl-5-methoxyphenyl)piperidin-4-yl)piperazin-1-yl)ethyl)-5-fluoro-2-oxobenzo[d]oxazol-3(2H)-yl)piperidine-2,6-dione]	14.6 nM	81.4%	0.894 nM	82.38%
CCc1cc(Nc2ncc(C(F)(F)F)c(Nc3ccc4nc(C)ccc4c3P(C)(C)=O)n2)c(OC)cc1N1CCC(N2CCN(CCc3cc(F)c(C4CCC(=O)NC4=O)c(F)c3)CC2)CC1 (centres unmarked) [Example 689, 3-(4-(2-(4-(1-(4-((4-((5-(dimethylphosphoryl)-2-methylquinolin-6-yl)amino)-5-(trifluoromethyl)pyrimidin-2-yl)amino)-2-ethyl-5-methoxyphenyl)piperidin-4-yl)piperazin-1-yl)ethyl)-2,6-difluorophenyl)piperidine-2,6-dione]	15.4 nM	85.1%	3.03 nM	72.37%
CCc1cc(Nc2ncc(Br)c(Nc3cc(F)c4nc(C)ccc4c3P(C)(C)=O)n2)c(OC)cc1N1CCC(N2CCN(C(=O)C3CCN(c4cc(F)c(C5CCC(=O)NC5=O)c(F)c4)CC3)CC2)CC1 (centres unmarked) [Example 512, 3-(4-(4-(4-(1-(4-((5-bromo-4-((5-(dimethylphosphoryl)-8-fluoro-2-methylquinolin-6-yl)amino)pyrimidin-2-yl)amino)-2-ethyl-5-methoxyphenyl)piperidin-4-yl)piperazine-1-carbonyl)piperidin-1-yl)-2,6-difluorophenyl)piperidine-2,6-dione]	6.46 nM	92%	2.36 nM	60.54%
CCc1cc(Nc2ncc(Br)c(Nc3cc(F)c4nc(C)ccc4c3P(C)(C)=O)n2)c(OC)cc1N1CCC(N2CCN(CCc3cc(F)c([C@H]4CCC(=O)NC4=O)c(F)c3)CC2)CC1 [Example 510, (R)-3-(4-(2-(4-(1-(4-((5-bromo-4-((5-(dimethylphosphoryl)-8-fluoro-2-methylquinolin-6-yl)amino)pyrimidin-2-yl)amino)-2-ethyl-5-methoxyphenyl)piperidin-4-yl)piperazin-1-yl)ethyl)-2,6-difluorophenyl)piperidine-2,6-dione]	3.89 nM	93.1%	0.763 nM	67.2%
CCc1ccc2c(P(C)(C)=O)c(Nc3nc(Nc4cc(C)c(N5CCC(N6CCN(C(=O)[C@@H]7CCN(c8cc(F)c([C@H]9CCC(=O)NC9=O)c(F)c8)C7)CC6)CC5)cc4OC)ncc3Br)ccc2n1 [Example 539, (R)-3-(4-((R)-3-(4-(1-(4-((5-bromo-4-((5-(dimethylphosphoryl)-2-ethylquinolin-6-yl)amino)pyrimidin-2-yl)amino)-5-methoxy-2-methylphenyl)piperidin-4-yl)piperazine-1-carbonyl)pyrrolidin-1-yl)-2,6-difluorophenyl)piperidine-2,6-dione]	6.44 nM	94.1%	1.09 nM	84.42%
CCOc1cc(N2CCC(N3CCN(CCC4CCN(c5cc(F)cc6c5oc(=O)n6C5CCC(=O)NC5=O)CC4)CC3)CC2)c(CC)cc1Nc1ncc(Br)c(Nc2ccc3nc(CC)ccc3c2P(C)(C)=O)n1 (centres unmarked) [Example 556, 3-(7-(4-(2-(4-(1-(4-((5-bromo-4-((5-(dimethylphosphoryl)-2-ethylquinolin-6-yl)amino)pyrimidin-2-yl)amino)-5-ethoxy-2-ethylphenyl)piperidin-4-yl)piperazin-1-yl)ethyl)piperidin-1-yl)-5-fluoro-2-oxobenzo[d]oxazol-3(2H)-yl)piperidine-2,6-dione]	14.8 nM	92.2%	4.03 nM	98.64%
CCc1cc(Nc2ncc(Br)c(Nc3ccc4c(=O)n(C)ncc4c3P(C)(C)=O)n2)c(OC)cc1N1CCC(N2CCN(C(=O)C3CN(c4cc(F)c(C5CCC(=O)NC5=O)c(F)c4)C3)CC2)CC1 (centres unmarked) [Example 520, 3-(4-(3-(4-(1-(4-((5-bromo-4-((5-(dimethylphosphoryl)-2-methyl-1-oxo-1,2-dihydrophthalazin-6-yl)amino)pyrimidin-2-yl)amino)-2-ethyl-5-methoxyphenyl)piperidin-4-yl)piperazine-1-carbonyl)azetidin-1-yl)-2,6-difluorophenyl)piperidine-2,6-dione]	5.66 nM	90.1%	0.769 nM	73.99%
CCOc1cc(N2CCC(N3CCN(CCc4cc(F)c([C@H]5CCC(=O)NC5=O)c(F)c4)[C@H](CO)C3)CC2)c(CC)cc1Nc1ncc(Br)c(Nc2ccc3nc(CC)ccc3c2P(C)(C)=O)n1 [Example 657, (R)-3-(4-(2-((S)-4-(1-(4-((5-bromo-4-((5-(dimethylphosphoryl)-2-ethylquinolin-6-yl)amino)pyrimidin-2-yl)amino)-5-ethoxy-2-ethylphenyl)piperidin-4-yl)-2-(hydroxymethyl)piperazin-1-yl)ethyl)-2,6-difluorophenyl)piperidine-2,6-dione]	3.3 nM	87.7%	0.981 nM	86.35%
CCOc1cc(N2CCC(N3CCN(CCN(C)c4cccc5c4oc(=O)n5C4CCC(=O)NC4=O)CC3)CC2)c(CC)cc1Nc1ncc(Br)c(Nc2cc(F)c3nc(CC)ccc3c2P(C)(C)=O)n1 (centres unmarked) [Example 604, 3-(7-((2-(4-(1-(4-((5-bromo-4-((5-(dimethylphosphoryl)-2-ethyl-8-fluoroquinolin-6-yl)amino)pyrimidin-2-yl)amino)-5-ethoxy-2-ethylphenyl)piperidin-4-yl)piperazin-1-yl)ethyl)(methyl)amino)-2-oxobenzo[d]oxazol-3(2H)-yl)piperidine-2,6-dione]	18.5 nM	86.1%	0.764 nM	69.1%
CCc1cc(Nc2ncc(Br)c(Nc3ccc4c(=O)n(C5CC5)ncc4c3P(C)(C)=O)n2)c(OC)cc1N1CCC(N2CCN(CCC3CCN(c4cc(F)c([C@H]5CCC(=O)NC5=O)c(F)c4)CC3)CC2)CC1 [Example 578, (R)-3-(4-(4-(2-(4-(1-(4-((5-bromo-4-((2-cyclopropyl-5-(dimethylphosphoryl)-1-oxo-1,2-dihydrophthalazin-6-yl)amino)pyrimidin-2-yl)amino)-2-ethyl-5-methoxyphenyl)piperidin-4-yl)piperazin-1-yl)ethyl)piperidin-1-yl)-2,6-difluorophenyl)piperidine-2,6-dione]	12.2 nM	96.5%	3.11 nM	87.5%
